28 molecules from patent publication US10000476B2, “Pyridone derivative, pharmaceutical containing the same and methods of use thereof” (KAKEN PHARMACEUTICAL CO., LTD., priority 2011, dated 2018) can be followed below.

A value given as a limit tells only on which side of the number the result lay.

Chain of TACE (P78536 215-824): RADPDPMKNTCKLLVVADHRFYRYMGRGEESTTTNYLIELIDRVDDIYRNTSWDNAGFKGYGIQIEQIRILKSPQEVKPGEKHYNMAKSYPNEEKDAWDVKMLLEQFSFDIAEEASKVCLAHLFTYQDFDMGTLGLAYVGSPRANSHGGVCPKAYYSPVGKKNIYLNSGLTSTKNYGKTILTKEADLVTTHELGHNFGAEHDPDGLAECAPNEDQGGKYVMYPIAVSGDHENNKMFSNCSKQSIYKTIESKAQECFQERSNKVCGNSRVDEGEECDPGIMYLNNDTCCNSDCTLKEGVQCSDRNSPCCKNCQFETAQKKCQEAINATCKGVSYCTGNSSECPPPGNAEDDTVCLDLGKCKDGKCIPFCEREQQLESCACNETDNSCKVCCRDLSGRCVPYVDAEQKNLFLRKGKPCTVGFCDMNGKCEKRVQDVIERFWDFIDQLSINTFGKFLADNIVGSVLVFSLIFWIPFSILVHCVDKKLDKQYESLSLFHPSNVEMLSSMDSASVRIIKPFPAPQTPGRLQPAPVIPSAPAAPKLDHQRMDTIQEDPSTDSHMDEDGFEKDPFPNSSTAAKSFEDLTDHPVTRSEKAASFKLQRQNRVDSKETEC

The target of the assay is TACE (Homo sapiens (Human), UniProt P78536). Nature of the assay: TACE inhibition test (in vitro). Type of assay: biochemical. The following applies: fluorescent synthetic substrate, 37° C., 1.5 hours. As to the method:
The nucleotide sequence of TACE has been reported by Moss et al. (Moss, M. L. et al., Nature 1997, 385, 733-736). Accordingly, the cDNA of TACE was obtained according to the prescribed method from THP-1 cells or the like, and then incorporated the cDNA into an expression vector. Next, this vector was transformed into mammalian cells or insect cells, and TACE expression was obtained.
The TACE inhibition test was carried out by measuring TACE activity in the presence and the absence of the test substance using the thus-obtained TACE as an enzyme, and a fluorescent synthetic substrate Nma(N-methylanthranilic acid)-Leu-Ala-Gln-Ala-Val-Arg-Ser-Ser-Lys(Dnp(dinitrophenyl))-D-Arg-NH2 (SEQ ID NO: 1) including the TACE-cleaved sequence of a membrane-bound TNF as a substrate. The TACE inhibition test method is shown below.
Namely, 90 μL of an enzyme solution prepared with an assay buffer A (50 mM tris-hydrochloric acid buffer (pH 7.5) including 200 mM sodium chloride, 5 mM calcium chloride, 10 μM zinc sulfate, and 2 mg/mL bovine serum albumin) and 90 μL of a fluorescent synthetic substrate prepared with an assay buffer B (50 mM tris-hydrochloric acid buffer (pH 7.5) including 200 mM sodium chloride, 5 mM calcium chloride, 10 μM zinc sulfate, and 0.05% PLURONIC F-68) were mixed together, and reacted at 37° C. for 1.5 hours. Enzyme activity was then determined by measuring with a fluorescence intensity meter (Labsystems, Fluoroskan Ascent) at an excitation wavelength of 355 nm and a measurement wavelength of 460 nm.
From the enzyme activity in the presence or the absence of the test substance, the inhibition rate was determined, and the 50% inhibitiory concentration (IC50) of the test substance was calculated.
The IC50 is the midpoint of a concentration-inhibition curve. On to `COc1ccc(C2(Cn3cccc(C)c3=O)NC(=O)NC2=O)cc1` (stereo not shown) [Compound I-2, 5-(4-methoxyphenyl)-5-[(3-methyl-2-oxopyridin-1(2H)-yl)methyl]imidazolidine-2,4-dione], for which the IC50 was < 100 nM. Regarding `Cc1cccn(CC2(c3ccc(C#N)cc3)NC(=O)NC2=O)c1=O` (stereo not shown) [Compound I-3, 4-{4-[(3-methyl-2-oxopyridin-1(2H)-yl)methyl]-2,5-dioxoimidazolidine-4-yl}benzonitrile], the IC50 is < 100 nM. `COc1cccc(C2(Cn3cccc(C)c3=O)NC(=O)NC2=O)c1` (stereo not shown) [Compound I-4, 5-(3-methoxyphenyl)-5-[(3-methyl-2-oxopyridin-1(2H)-yl)methyl]imidazolidine-2,4-dione]: the concentration for half-maximal inhibition (IC50) was < 100 nM. In the case of `Cc1cccn(CC2(c3ccsc3)NC(=O)NC2=O)c1=O` (stereo not shown) [Compound I-5, 5-[(3-methyl-2-oxopyridin-1(2H)-yl)methyl]-5-(thiophen-3-yl)imidazolidine-2,4-dione], the concentration for half-maximal inhibition (IC50) was < 100 nM.

As to `Cc1cccn(CC2(c3cc4ccccc4o3)NC(=O)NC2=O)c1=O` (stereo not shown) [Compound I-6, 5-(benzofuran-2-yl)-5-[(3-methyl-2-oxopyridin-1(2H)-yl)methyl]imidazolidine-2,4-dione], the IC50 is < 100 nM. On to `Cc1cccn(CC2(c3ccccn3)NC(=O)NC2=O)c1=O` (stereo not shown) [Compound I-7, 5-[(3-methyl-2-oxopyridin-1(2H)-yl)methyl]-5-(pyridin-2-yl)imidazolidine-2,4-dione], for which the IC50 is < 100 nM.

With `Cc1cccn(CC2(c3cccnc3)NC(=O)NC2=O)c1=O` (stereo not shown) [Compound I-8, 5-[(3-methyl-2-oxopyridin-1(2H)-yl)methyl]-5-(pyridin-3-yl)imidazolidine-2,4-dione], the IC50 was < 100 nM. `Cc1cccn(CC2(c3ccc(Br)cc3)NC(=O)NC2=O)c1=O` (stereo not shown) [Compound I-11, 5-(4-bromophenyl)-5-[(3-methyl-2-oxopyridin-1(2H)-yl)methyl]imidazolidine-2,4-dione]: the IC50 is < 100 nM. For the molecule `COc1cc(C2(Cn3cccc(C)c3=O)NC(=O)NC2=O)ccc1F` (stereo not shown) [Compound I-12, 5-(4-fluoro-3-methoxyphenyl)-5-[(3-methyl-2-oxopyridin-1(2H)-yl)methyl]imidazolidine-2,4-dione], the IC50 is < 100 nM. As to `COCOc1ccc(C2(Cn3cccc(C)c3=O)NC(=O)NC2=O)cc1` (stereo not shown) [Compound I-13, 5-[4-(methoxymethoxy)phenyl]-5-[(3-methyl-2-oxopyridin-1(2H)-yl)methyl]imidazolidine-2,4-dione], the IC50 was < 100 nM. In the case of `COc1ccc(C2(Cn3cccc(C)c3=O)NC(=O)NC2=O)cc1F` (stereo not shown) [Compound I-14, 5-(3-fluoro-4-methoxyphenyl)-5-[(3-methyl-2-oxopyridin-1(2H)-yl)methyl]imidazolidine-2,4-dione], the IC50 was < 100 nM. With `Cc1cccn(CC2(c3ccc(F)cc3)NC(=O)NC2=O)c1=O` (stereo not shown) [Compound I-15, 5-(4-fluorophenyl)-5-[(3-methyl-2-oxopyridin-1(2H)-yl)methyl]imidazolidine-2,4-dione], the half-maximal inhibitory concentration (IC50) was < 100 nM. As for `COc1ccc(C2(Cn3cccc(C)c3=O)NC(=O)NC2=O)cc1OC` (stereo not shown) [Compound I-16, 5-(3,4-dimethoxyphenyl)-5-[(3-methyl-2-oxopyridin-1(2H)-yl)methyl]imidazolidine-2,4-dione], the figure is < 100 nM; as for `Cc1cccn(CC2(c3ccc(C(C)(C)C)cc3)NC(=O)NC2=O)c1=O` (stereo not shown) [Compound I-17, 5-[4-(tert-butyl)phenyl]-5-[(3-methyl-2-oxopyridin-1(2H)-yl)methyl]imidazolidine-2,4-dione], < 100 nM; as for `COc1ccc(C2(Cn3cccc(C)c3=O)NC(=O)NC2=O)c(OC)c1` (stereo not shown) [Compound I-18, 5-(2,4-dimethoxyphenyl)-5-[(3-methyl-2-oxopyridin-1(2H)-yl)methyl]imidazolidine-2,4-dione], < 100 nM. Take `Cc1cccn(CC2(c3cccc(C(F)(F)F)c3)NC(=O)NC2=O)c1=O` (stereo not shown) [Compound I-19]: the IC50 is < 100 nM. As for `COc1ccc(OC)c(C2(Cn3cccc(C)c3=O)NC(=O)NC2=O)c1` (stereo not shown) [Compound I-20, 5-(2,5-dimethoxyphenyl)-5-[(3-methyl-2-oxopyridin-1(2H)-yl)methyl]imidazolidine-2,4-dione], the IC50 is < 100 nM.

As to `COc1cc(F)ccc1C1(Cn2cccc(C)c2=O)NC(=O)NC1=O` (stereo not shown) [Compound I-21, 5-(4-fluoro-2-methoxyphenyl)-5-[(3-methyl-2-oxopyridin-1(2H)-yl)methyl]imidazolidine-2,4-dione], the IC50 was < 100 nM. With `Cc1cccn(CC2(c3ccc4occc4c3)NC(=O)NC2=O)c1=O` (stereo not shown) [Compound I-22, 5-(benzofuran-5-yl)-5-[(3-methyl-2-oxopyridin-1(2H)-yl)methyl]imidazolidine-2,4-dione], the IC50 was < 100 nM. Regarding `Cc1cccn(CC2(c3ccc4sccc4c3)NC(=O)NC2=O)c1=O` (stereo not shown) [Compound I-23, 5-(benzo[b]thiophen-5-yl)-5-[(3-methyl-2-oxopyridin-1(2H)-yl)methyl]imidazolidine-2,4-dione], the IC50 was < 100 nM. As to `COc1ccc(OC(F)(F)F)cc1C1(Cn2cccc(C)c2=O)NC(=O)NC1=O` (stereo not shown) [Compound I-24, 5-[2-methoxy-5-(trifluoromethoxy)phenyl]-5-[(3-methyl-2-oxopyridin-1(2H)-yl)methyl]imidazolidine-2,4-dione], the IC50 lay within 100 to 1000 nM. Turning to `Cc1cccn(CC2(c3ccc(S(C)(=O)=O)cc3)NC(=O)NC2=O)c1=O` (stereo not shown) [Compound I-25, 5-[(3-methyl-2-oxopyridin-1(2H)-yl)methyl]-5-[4-(methylsulfonyl)phenyl]imidazolidine-2,4-dione], the concentration for half-maximal inhibition (IC50) was < 100 nM. On to `Cc1cccn(CC2(c3ccc4c(c3)CCCO4)NC(=O)NC2=O)c1=O` (stereo not shown) [Compound I-26, 5-(chroman-6-yl)-5-[(3-methyl-2-oxopyridin-1(2H)-yl)methyl]imidazolidine-2,4-dione], for which the IC50 is < 100 nM. Take `Cc1cccn(CC2(c3cccc(F)c3)NC(=O)NC2=O)c1=O` (stereo not shown) [Compound I-28, 5-(3-fluorophenyl)-5-[(3-methyl-2-oxopyridin-1(2H)-yl)methyl]imidazolidine-2,4-dione]: the IC50 was < 100 nM. The value for `Cc1cccn(CC2(c3cc(F)c(F)cc3F)NC(=O)NC2=O)c1=O` (stereo not shown) [Compound I-29, 5-[(3-methyl-2-oxopyridin-1(2H)-yl)methyl]-5-(2,4,5-trifluorophenyl)imidazolidine-2,4-dione] was < 100 nM. On to `Cc1cc(C2(Cn3cccc(C)c3=O)NC(=O)NC2=O)ccc1F` (stereo not shown) [Compound I-30, 5-(4-fluoro-3-methylphenyl)-5-[(3-methyl-2-oxopyridin-1(2H)-yl)methyl]imidazolidine-2,4-dione], for which the half-maximal inhibitory concentration (IC50) is < 100 nM. On to `Cc1cccn(CC2(c3ccc(-c4ccncc4)cc3)NC(=O)NC2=O)c1=O` (stereo not shown) [Compound I-31, 5-[(3-methyl-2-oxopyridin-1(2H)-yl)methyl]-5-[4-(pyridin-4-yl)phenyl]imidazolidine-2,4-dione], for which the IC50 is < 100 nM. As for `Cc1cccn(CC2(c3ccc(-c4cccnc4)cc3)NC(=O)NC2=O)c1=O` (stereo not shown) [Compound I-32, 5-[(3-methyl-2-oxopyridin-1(2H)-yl)methyl]-5-[4-(pyridin-3-yl)phenyl]imidazolidine-2,4-dione], the IC50 was < 100 nM.
